According to patent US9969758B2, “Antimicrobial compounds” (BIOMERIEUX, priority 2014, dated 2018):
Converted amounts (≈) assume the structure as drawn.

Assays:
Experiment in all cases: MIC by agar dilution
E. coli (53) = format: cell-based, Escherichia coli; conditions: E. coli (53)
Source text: (§1) Bacterial isolates. […] These included Citrobacter freundii (n=5), other species of Citrobacter (n=4), Enterobacter aerogenes (n=1), Enterobacter cloacae (n=27), Escherichia coli (n=53), Klebsiella oxytoca (n=5), Klebsiella pneumoniae (n=87), Kluyvera spp (n=1), Proteus mirabilis (n=8), Providencia rettgeri (n=2), Salmonella spp (n=3), and Serratia marcescens (n=1). Among these 197 isolates, there were 128 (65%) carbapenemase producers, including; 87 with NDM-1, 9 with IMP, 11 with KPC, 14 with OXA-48 and 7 with VIM. The majority of the carbapenemase producers jointly produced broad-spectrum β-lactamases (BSBL) or cephalosporinases (AmpC β-lactamases), but the latter are not documented for the sake of clarity.
(§2) Determining the minimum inhibitory concentrations (MIC). All the MICs were determined using an agar dilution method. This required use of a medium without a defined antagonist (peptone-free), prepared as described previously with the inclusion of 2% horse blood lysed with saponin, 25.0 μg/mL of NAD and 25.0 μg/mL of hemin [17]. The compounds tested were dissolved in sterile deionised water and incorporated into the agar medium in a concentration range of 0.0031 to 8.0 μg/mL (0.016 to 32 μg/mL for gram-positive bacteria). All the isolates were prepared at a density equivalent to 0.5 McFarland units in sterile deionised water using a densitometer (approximately 1.5×10^8 CFU/mL), and then diluted to 1 for 15. An aliquot of 1 μL of each diluted suspension was then placed onto plates with a multispot inoculator to give the final recommended inoculation of 10 000 CFU/spot. The MICs of fosfomycin were determined by the same method, except that the IsoSensitest medium (Oxoid, Basingstoke, United Kingdom) was used, plus 25.0 μg/mL of glucose-6-phosphate (Sigma, Poole, United Kingdom) and an extended range of fosfomycin concentrations. All the dishes (including the antimicrobial-free controls) were incubated for 22 hours at 37° C. All the tests were performed on at least two independent replicates in order to examine the reproducibility.

All S. aureus (50) = format: cell-based, Staphylococcus aureus; conditions: All S. aureus (50)
Source text: (§3) A collection of 50 isolates of Staphylococci aureus included 36 strains of methicillin-resistant S. aureus (MRSA) frequently encountered in Europe, including strains isolated in Belgium, Finland, France, Germany and the United Kingdom. Another strain of MRSA, NCTC 11939, was included as a control, as well as a methicillin-sensitive control (NCTC 6571). Twelve other isolates of methicillin-sensitive Staphylococcus aureus (MSSA) recently collected from blood cultures were also included. Finally, 50 isolates of enterococci included two control strains (Enterococcus faecalis NCTC 755 and Enterococcus faecium NCTC 7171) and 48 isolates originating from clinical samples obtained from at least three different hospitals. The clinical isolates included E. faecalis (n=10), E. faecium (n=33), Enterococcus casseliflavus (n=3), Enterococcus gallinarum (n=2).
as §2

Enterobacteriaceae (197) = format: cell-based; conditions: Enterobacteriaceae (197)
Source text: as §1, §2

[1] = system: Enterobacteriaceae with a broad-spectrum β-lactamase; format: cell-based; conditions: BSBL (47)
Source text: as §1, §2

[2] = system: carbapenemase-producing Enterobacteriaceae; format: cell-based; conditions: CPE (128)
Source text: as §1, §2

K. pneumoniae (87) = format: cell-based, Klebsiella pneumoniae; conditions: K. pneumoniae (87)
Source text: as §1, §2

E. cloacae (27) = format: cell-based, Enterobacter cloacae; conditions: E. cloacae (27)
Source text: as §1, §2

E. faecalis (11) = format: cell-based, Enterococcus faecalis; conditions: E. faecalis (11)
Source text: as §3, §2

AmpC (22) = format: cell-based, Enterobacteriaceae; conditions: AmpC (22)
Source text: as §1, §2

[3] = system: methicillin-resistant Staphylococcus aureus; format: cell-based; conditions: MRSA (37)
Source text: as §3, §2

All Enterococci (50) = format: cell-based
Source text: as §3, §2

[4] = system: methicillin-sensitive Staphylococcus aureus; format: cell-based; conditions: MSSA (13)
Source text: as §3, §2

[5] = system: glycopeptide-resistant enterococci; format: cell-based; conditions: GRE (43)
Source text: as §3, §2

E. faecium (34) = format: cell-based, Enterococcus faecium
Source text: as §3, §2

## C[C@H](N)C(=O)N[C@@H](C)C(=O)N[C@@H](C)P(=O)(O)O [Di-alanyl fosfalin, L-alanyl-L-alanyl-L-1-aminoethylphosphonic acid]
E. coli (53)
  MIC50: 0.5 µg/mL (≈ 1.87 µM)
  MIC90: 2 µg/mL (≈ 7.48 µM)
  Modal MIC (most frequent MIC): 0.25 µg/mL
All S. aureus (50)
  MIC50: 8 µg/mL (≈ 29.9 µM)
  MIC90: 16 µg/mL (≈ 59.9 µM)
  MIC Range: 0.5 to 32 µg/mL
  Modal MIC (most frequent MIC): 4 µg/mL
Enterobacteriaceae (197)
  MIC50: 8 µg/mL (≈ 29.9 µM)
  MIC90: >8 µg/mL
  Modal MIC (most frequent MIC): >8 µg/mL
[1]
  MIC50: 8 µg/mL (≈ 29.9 µM)
  MIC90: >8 µg/mL
  Modal MIC (most frequent MIC): >8 µg/mL
[2]
  MIC50: 8 µg/mL (≈ 29.9 µM)
  MIC90: >8 µg/mL
  Modal MIC (most frequent MIC): >8 µg/mL
K. pneumoniae (87)
  MIC50: >8 µg/mL
  MIC90: >8 µg/mL
  Modal MIC (most frequent MIC): >8 µg/mL
E. cloacae (27)
  MIC50: >8 µg/mL
  MIC90: >8 µg/mL
  Modal MIC (most frequent MIC): 4 µg/mL
E. faecalis (11)
  MIC50: 0.063 µg/mL (≈ 0.236 µM)
  MIC90: 0.5 µg/mL (≈ 1.87 µM)
  Modal MIC (most frequent MIC): 0.031 µg/mL
AmpC (22)
  MIC50: >8 µg/mL
  MIC90: >8 µg/mL
  Modal MIC (most frequent MIC): >8 µg/mL
[3]
  MIC50: 8 µg/mL (≈ 29.9 µM)
  MIC90: 16 µg/mL (≈ 59.9 µM)
  MIC Range: 0.5 to 32 µg/mL
  Modal MIC (most frequent MIC): 4 µg/mL
All Enterococci (50); All Enterococci (50)
  MIC50: 0.5 µg/mL (≈ 1.87 µM)
  MIC90: 2 µg/mL (≈ 7.48 µM)
  Modal MIC (most frequent MIC): 0.5 µg/mL
All Enterococci (50); enterococci
  MICs lower than those of alafosfalin, in certain cases: 256 times
  MICs lower than those of alafosfalin, on average: ~16 times
[4]
  MIC50: 8 µg/mL (≈ 29.9 µM)
  MIC90: 16 µg/mL (≈ 59.9 µM)
  MIC Range: 0.5 to 32 µg/mL
  Modal MIC (most frequent MIC): 16 µg/mL
[5]
  MIC50: 0.5 µg/mL (≈ 1.87 µM)
  MIC90: >32 µg/mL
  Modal MIC (most frequent MIC): 0.5 µg/mL
E. faecium (34); 34 E. faecium isolates (including 31 vancomycin-resistant)
  concentration by which all isolates were inhibited: 4 µg/mL
E. faecium (34); E. faecium (34)
  MIC50: 0.5 µg/mL (≈ 1.87 µM)
  MIC90: 2 µg/mL (≈ 7.48 µM)
  MIC Range: ≤0.016-4 ^ μg/mL
  Modal MIC (most frequent MIC): 0.5 µg/mL
